Columns and labels:
DBA/2 mice = experiment: anticonvulsant protection (DBA2 mouse model of anticonvulsant efficacy, sound-induced seizures); assay type: in vivo; design: Anticonvulsant % Protect 2 hr: concentration or dose not given beside the values; settings: for Anticonvulsant % Protect* 2h / Anticonvulsant % Protect* 1h: dosed at 30 mg/kg PO; for Anticonvulsant % Protect 2 hr: Table 1
[1] = anxiolytic activity relative to pregabalin (model not given); assay type: in vivo; settings: dosed at 30 mg/kg PO; percent of pregabalin activity

In the case of `CCCC(C)CC(CN)CC(=O)O` (centres unmarked) [3-Aminomethyl-5-methyloctanoic acid, 3-Aminomethyl-5-methyl-octanoic acid], the “Anticonvulsant % Protect* 2h” value (DBA/2 mice) was 100%.

In the case of `CC(C)[C@@H](C)[C@@H](CN)CC(=O)O` [(3S,4R)3-Aminomethyl-4,5-dimethyl-hexanoic acid], the “Anxiolytic Activity* % Preg. Act.” value [1] was 12%.

With `CC(C)[C@H](C)[C@H](CN)CC(=O)O` [(3R,4S)-3-Aminomethyl-4,5-dimethyl-hexanoic acid] the “Anxiolytic Activity* % Preg. Act.” value [1] was 58%.

For `CCC[C@@H](C)C[C@H](CN)CC(=O)O.Cl` [(3S,5R)-3-Aminomethyl-5-methyl-octanoic acid hydrochloride], the “Anticonvulsant % Protect* 1h” value (DBA/2 mice) was 100% and the “Anticonvulsant % Protect* 2h” value (DBA/2 mice) was 100%.

For `CCC(C)CC(CN)CC(=O)O` (centres unmarked), the “Anticonvulsant % Protect 2 hr” value (DBA/2 mice) was 100%.

In the case of `CC[C@@H](C)[C@H](CN)CC(=O)O`, the “Anticonvulsant % Protect 2 hr” value (DBA/2 mice) was 0%.

For `CCC(CC)C(CN)CC(=O)O` (centres unmarked), the “Anticonvulsant % Protect 2 hr” value (DBA/2 mice) was 20%.

With `CCCCC[C@H](C)C[C@H](CN)CC(=O)O` [(3S,5S)-3-Aminomethyl-5-methyl-decanoic acid] the “Anticonvulsant % Protect* 1h” value (DBA/2 mice) was 0%.

For `CC(C)[C@@H](C)C(CN)CC(=O)O` (some centres unmarked), the “Anticonvulsant % Protect 2 hr” value (DBA/2 mice) was 100%.

With `CC(C)CC(CN)CC(=O)O` (centres unmarked) [reference compound] the “Anticonvulsant % Protect 2 hr” value (DBA/2 mice) was 100%.

From EP1840117A1, “Mono- and disubstituted 3-propyl gamma-aminobutyric acids” (Warner-Lambert Company LLC, priority 1999, dated 2000)
